pIC50: −log10 of the molar value.
System: 616215-338-R-J1-PDC spheroids with HUVEC/MSC, viability
Test: Anticancer human tumor 616215-338-R-J1-PDC patient-derived colon adenocarcinoma cell line growth inhibition [PI3K]
Conditions: for viability, T/C: stronger effect = lower value
Method in brief: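 Complex 3D spheroids (cancer cells + endothelial HUVEC + mesenchymal stem cells); drug pairs of targeted agent x inavolisib/alpelisib/duvelisib/copanlisib; half-log series from ~Cmax, max 10 microM if Cmax unknown; endpoint viability.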

[1] = curve of first compound, second compound 0.0316 µM
[2] = curve of first compound, second compound 0.1 µM
[3] = curve of first compound, second compound 0.316 µM
[4] = curve of first compound, second compound 1 µM
[5] = curve of first compound, second compound 3.16 µM
[6] = curve of first compound, second compound 10 µM
[7] = second compound 0.0316 µM, first compound 0.0316 µM
[8] = second compound 0.0316 µM, first compound 0.1 µM
[9] = second compound 0.0316 µM, first compound 0.316 µM
[10] = second compound 0.0316 µM, first compound 1 µM
[11] = second compound 0.0316 µM, first compound 3.16 µM
[12] = second compound 0.0316 µM, first compound 10 µM
[13] = second compound 0.1 µM, first compound 0.0316 µM
[14] = second compound 0.1 µM, first compound 0.1 µM
[15] = second compound 0.1 µM, first compound 0.316 µM
[16] = second compound 0.1 µM, first compound 1 µM
[17] = second compound 0.1 µM, first compound 3.16 µM
[18] = second compound 0.1 µM, first compound 10 µM
[19] = second compound 0.316 µM, first compound 0.0316 µM
[20] = second compound 0.316 µM, first compound 0.1 µM
[21] = second compound 0.316 µM, first compound 0.316 µM
[22] = second compound 0.316 µM, first compound 1 µM
[23] = second compound 0.316 µM, first compound 3.16 µM
[24] = second compound 0.316 µM, first compound 10 µM
[25] = second compound 1 µM, first compound 0.0316 µM
[26] = second compound 1 µM, first compound 0.1 µM
[27] = second compound 1 µM, first compound 0.316 µM
[28] = second compound 1 µM, first compound 1 µM
[29] = second compound 1 µM, first compound 3.16 µM
[30] = second compound 1 µM, first compound 10 µM
[31] = second compound 3.16 µM, first compound 0.0316 µM
[32] = second compound 3.16 µM, first compound 0.1 µM
[33] = second compound 3.16 µM, first compound 0.316 µM
[34] = second compound 3.16 µM, first compound 1 µM
[35] = second compound 3.16 µM, first compound 3.16 µM
[36] = second compound 3.16 µM, first compound 10 µM
[37] = second compound 10 µM, first compound 0.0316 µM
[38] = second compound 10 µM, first compound 0.1 µM
[39] = second compound 10 µM, first compound 0.316 µM
[40] = second compound 10 µM, first compound 1 µM
[41] = second compound 10 µM, first compound 3.16 µM
[42] = second compound 10 µM, first compound 10 µM
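Note: spheroids exposed to agents for seven days before the viability read.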

CCCS(=O)(=O)Nc1ccc(F)c(C(=O)c2c[nH]c3ncc(-c4ccc(Cl)cc4)cc23)c1F + CC(Nc1ncnc2nc[nH]c12)c1cc2cccc(Cl)c2c(=O)n1-c1ccccc1
pIC50 [1]: 5.34
pIC50 [2]: 5.39
pIC50 [3]: 5.36
pIC50 [4]: 5.33
pIC50 [5]: 5.37
pIC50 [6]: 5.33
viability, T/C [7]: 102%
viability, T/C [8]: 93.2%
viability, T/C [9]: 106%
viability, T/C [10]: 93.6%
viability, T/C [11]: 73.2%
viability, T/C [12]: 1.56%
viability, T/C [13]: 110%
viability, T/C [14]: 102%
viability, T/C [15]: 106%
viability, T/C [16]: 96.4%
viability, T/C [17]: 63.4%
viability, T/C [18]: 1.25%
viability, T/C [19]: 105%
viability, T/C [20]: 113%
viability, T/C [21]: 97.7%
viability, T/C [22]: 101%
viability, T/C [23]: 68.9%
viability, T/C [24]: 1.67%
viability, T/C [25]: 107%
viability, T/C [26]: 105%
viability, T/C [27]: 93.8%
viability, T/C [28]: 101%
viability, T/C [29]: 74.3%
viability, T/C [30]: 2.71%
viability, T/C [31]: 100%
viability, T/C [32]: 115%
viability, T/C [33]: 102%
viability, T/C [34]: 107%
viability, T/C [35]: 67.4%
viability, T/C [36]: 1.53%
viability, T/C [37]: 115%
viability, T/C [38]: 105%
viability, T/C [39]: 113%
viability, T/C [40]: 104%
viability, T/C [41]: 74.7%
viability, T/C [42]: 3%

CC(Cn1ccc(-c2ccc(C#N)c(Cl)c2)n1)NC(=O)c1cc(C(C)O)[nH]n1 (stereo not drawn) + CC(Nc1ncnc2nc[nH]c12)c1cc2cccc(Cl)c2c(=O)n1-c1ccccc1
pIC50 [1]: < 5.00
pIC50 [2]: < 5.00
pIC50 [3]: < 5.00
pIC50 [4]: < 5.00
pIC50 [5]: < 5.00
pIC50 [6]: < 5.00
viability, T/C [7]: 92%
viability, T/C [8]: 99.5%
viability, T/C [9]: 103%
viability, T/C [10]: 96.1%
viability, T/C [11]: 116%
viability, T/C [12]: 99.5%
viability, T/C [13]: 93.7%
viability, T/C [14]: 94.6%
viability, T/C [15]: 102%
viability, T/C [16]: 92.9%
viability, T/C [17]: 95.5%
viability, T/C [18]: 104%
viability, T/C [19]: 93.1%
viability, T/C [20]: 102%
viability, T/C [21]: 89.1%
viability, T/C [22]: 101%
viability, T/C [23]: 102%
viability, T/C [24]: 93.4%
viability, T/C [25]: 96%
viability, T/C [26]: 88.3%
viability, T/C [27]: 110%
viability, T/C [28]: 93.7%
viability, T/C [29]: 110%
viability, T/C [30]: 95.9%
viability, T/C [31]: 109%
viability, T/C [32]: 97.1%
viability, T/C [33]: 107%
viability, T/C [34]: 104%
viability, T/C [35]: 94.8%
viability, T/C [36]: 92.8%
viability, T/C [37]: 99.4%
viability, T/C [38]: 106%
viability, T/C [39]: 101%
viability, T/C [40]: 97%
viability, T/C [41]: 118%
viability, T/C [42]: 95.5%

CC1(C)CCC(CN2CCN(c3ccc(C(=O)NS(=O)(=O)c4ccc(NCC5CCOCC5)c([N+](=O)[O-])c4)c(Oc4cnc5[nH]ccc5c4)c3)CC2)=C(c2ccc(Cl)cc2)C1 + Cc1nc(NC(=O)N2CCCC2C(N)=O)sc1-c1ccnc(C(C)(C)C(F)(F)F)c1
pIC50 [1]: 5.28
pIC50 [2]: 5.30
pIC50 [3]: 5.30
pIC50 [4]: 5.29
pIC50 [5]: 5.27
pIC50 [6]: 5.35
viability, T/C [7]: 95.6%
viability, T/C [8]: 98.9%
viability, T/C [9]: 108%
viability, T/C [10]: 102%
viability, T/C [11]: 86.4%
viability, T/C [12]: 2.58%
viability, T/C [13]: 97.4%
viability, T/C [14]: 92.3%
viability, T/C [15]: 95.8%
viability, T/C [16]: 104%
viability, T/C [17]: 81.5%
viability, T/C [18]: 1.97%
viability, T/C [19]: 98.5%
viability, T/C [20]: 97.1%
viability, T/C [21]: 90.5%
viability, T/C [22]: 97.7%
viability, T/C [23]: 81%
viability, T/C [24]: 2.29%
viability, T/C [25]: 103%
viability, T/C [26]: 92.3%
viability, T/C [27]: 102%
viability, T/C [28]: 93%
viability, T/C [29]: 85.3%
viability, T/C [30]: 0.61%
viability, T/C [31]: 95.6%
viability, T/C [32]: 99.4%
viability, T/C [33]: 101%
viability, T/C [34]: 97.9%
viability, T/C [35]: 91.9%
viability, T/C [36]: 0.6%
viability, T/C [37]: 92.8%
viability, T/C [38]: 99.9%
viability, T/C [39]: 94.8%
viability, T/C [40]: 87.1%
viability, T/C [41]: 72.4%
viability, T/C [42]: 0.39%

Cn1ncnc1[C@H]1c2n[nH]c(=O)c3cc(F)cc(c23)N[C@@H]1c1ccc(F)cc1
viability, T/C (compound 0.000316 µM): 95% [middle of 4 runs]
viability, T/C (compound 0.001 µM): 97.2% [middle of 4 runs]
viability, T/C (compound 0.00316 µM): 100% [middle of 4 runs]
viability, T/C (compound 0.01 µM): 102% [middle of 4 runs]
viability, T/C (compound 0.0316 µM): 102% [middle of 4 runs]
viability, T/C (compound 0.1 µM): 94.5% [middle of 4 runs]
pIC50 (curve of compound): < 7.00

— PubChem BioAssay AID1963978 (Molecular Pharmacology Branch, DTP, NCI, 2024)
